Data from patent US9375424B2, “Compounds that treat malaria and prevent malaria transmission” (The United States of America, as represented by the …, priority 2009, dated 2016).
pIC50: −log10 of the molar value. Structures can show the parent of a compound that is named as a salt. Where two headings read alike, the source gives them in different places.

How the values were obtained:
P. falciparum lines = experiment: qHTS SYBR Green Plasmodium proliferation assay in infected erythrocytes (seven parasite lines); type: cell-based; details: Erythrocyte, read-out: IC50, inhibition of proliferation in all parasite lines
Protocol: The P. falciparum lines used in this study have been described previously (Mu J, et al. Multiple transporters associated with malaria parasite responses to chloroquine and quinine. Mol Microbiol 2003;49:977-989). […] Briefly, 3 μl culture medium was dispensed into 1536-well black clear-bottom plates (Aurora Biotechnologies) using a Multidrop Combi (Thermo Fisher Scientific Inc.); 23-nL compounds in DMSO were added by a pin tool (Kalypsys), and 5 μl of P. falciparum-infected RBCs (0.3% parasitemia, 2.5% hematocrit final concentration) were added. The plates were incubated at 37° C. in a humidified incubator in 5% CO2 for 72 h, and 2 μl lysis buffer (20 mM Tris-HCl, 10 mM EDTA, 0.16% saponin, 1.6% triton-X, 10× SYBR Green I supplied as 10,000× final concentration by Invitrogen) was added to each well. The plates were mixed for 25 sec with gentle shaking and incubated overnight at room temperature in the dark. The following morning, fluorescence intensity at 485 (14) nm excitation and 535 (25) nm emission wavelengths was measured on an En Vision (Perkin Elmer) plate reader. […] The plates were incubated at 37° C. under 5% CO2, 5% 02, and 90% N2 for 72 h, incubated for another 30 min after addition of 50 μl lysis buffer, and read in a FLUOstar OPTIMA reader (BMG Labtech). Data were analyzed using software at the NIAID Bioinformatic Resources (niaid-biocluster.niaid.nih.gov/cgi-bin/bipod2/index.cgi). Parasite proliferation was measured after 72 hr of incubation (corresponding to 1.5 generations of intra-erythrocytic parasite growth), with each compound tested at seven or eight five-fold dilutions beginning at 29 μM. […] The potencies of known antimalarial agents had similar values determined by the assay in 96-well plate format. […] Although the determined potencies of 4 were lower, the relative potency between lines sensitive to 4, HB3, 3D7, and D10 were clearly distinguished from resistant lines. […] The potencies of compounds scored as active or inconclusive in both replicates correlated well indicating good repeatability in determining IC50 values between replicates.

[1] = tested on: P. falciparum gametocytes; experiment: killing of P. falciparum gametocytes in vitro; type: cell-based, Plasmodium falciparum
[2] = tested on: Plasmodium yoelii nigeriensis; type: in vivo; details: for oocyst formation: mosquito feeding 1 hr after treatment (FIG. 1A), untreated control average 460 oocysts per mosquito
Protocol: Mice infected with Plasmodium yoelii nigeriensis were treated with drugs in different concentrations for various time periods and were exposed to mosquitoes. Oocysts were counted from dissected midgut 9-10 days after feeding. FIG. 1A, the number of oocysts from mosquitoes fed on mice treated with different TAA compounds for 1 hour. CAR, carbita Pentane (100 mg/kg); CHL, chlorpromazine (30 mg/kg); DEQ, dequalinium dichloride (10 mg/kg); Dox, doxipin hydrochloride (30 mg/kg); Ima, Imipramine (100 mg/kg), KET, ketotifen (100 mg/kg); Pro, protryptiline hydrochloride (10 mg/kg). FIG. 1B, the number of oocysts from mosquitoes fed on mice treated with different concentrations of ketotifen (KET) for 1 hour, compared with those treated with standard anti-malarial drugs, primaquine (PQ, 5 and 10 mg/kg), arteminisinin (ART, 5 mg/kg) and chloroquine (CQ, 10 mg/kg). FIG. 1C, the number of oocysts from mosquitoes fed on mice treated with a single dose of 0.5 mg/kg or 0.1 mg/kg of ketotifen (KET) for 1, 6 or 24 hours. FIG. 1D, the number of oocysts from mosquitoes fed on mice treated with two doses of 0.5 mg/kg or 0.1 mg/kg (filled symbol) of ketotifen (KET) for 1, 6 or 24 hours. CON, no drug control.
For testing transmission-blocking activity in vivo, CD-1 strain female mice, aged 6-8 weeks old, were infected intra-peritoneally (i.p.) with 5×106 P. yoelii nigeriensis. In a preliminary experiment, on day 3 post infection the animals were administrated i.p. a single dose of tricyclic antihistamine and antidepressants (TAA) compound or pharmaceutical-grade phosphate buffer saline (pH 7.4). Starting 1 hr after the administration of the TAA compound, the animals were anesthetized and brought into contact with a colony of Anopheles stephensimosquitoes. The mosquitoes were allowed to feed on the mice. Unfed or partially engorged mosquitoes were removed from the cages. The mosquitoes were maintained for 9-10 days 24 ±1° C. and 80-90% relative humidity. The gametocytocidal activity of the test compound was accessed on the basis of the oocyst counts in mosquitoes fed on treated animals and a control group. In subsequent experiments, the gametocytocidal action of ketotifin at different concentrations and doses was evaluated similarly. One group was given a single dose of 0.1, 0.5, 1, 5, 10, 30 or 60 mg/kg on day 3 post infection and subjected to mosquito feeding 1 hr after compound administration. Primaquine, chloroquine and arteminsin were used as reference drugs. The other group was given one dose or two doses of 0.1 or 0.5 mg/kg at 4 hr interval and subjected to mosquito feeding 1, 6 or 24 hrs after the final drug administration.

[3] = all seven parasite lines, 72 h incubation
[4] = 5 mg/kg single dose, treatment for 1 hr
[5] = two doses of 0.5 mg/kg at 4 hours interval, 24-hour treatment

## Cc1cc(N)c2ccccc2[n+]1CCCCCCCCCC[n+]1c(C)cc(N)c2ccccc21 [dequalinium dichloride]
P. falciparum lines; [3]
  pIC50: > 5.70

## CN1CCC(=C2c3ccccc3CC(=O)c3sccc32)CC1 [ketotifen]
[1]
  concentration that completely kills P. falciparum gametocytes in vitro: 0.5 µM
[2]; 1 mg/kg single dose, treatment for 1 hr (FIG. 1B)
  average number of oocysts per mosquito: 34 oocysts per mosquito
[2]; [4]
  mosquitoes that had oocysts: 2 of 44
  oocyst counts: 0.13 oocysts per mosquito
[2]; 5 mg/kg single dose, treatment for 1 hr (FIG. 1B)
  oocyst development: almost completely blocked oocyst development
[2]; 100 mg/kg single dose i.p.
  oocyst formation: strong reduction in oocyst formation
[2]; relative to primaquine dose
  dose achieving similar reduction in oocyst count to primaquine, as share of the primaquine dose: 10%
[2]; single dose 0.1 mg/kg, 24 hours prior to mosquito feeding (FIG. 1C)
  oocyst counts: 82 oocysts per mosquito
[2]; single dose 0.5 mg/kg, 24 hours prior to mosquito feeding (FIG. 1C)
  oocyst counts: 12 oocysts per mosquito
[2]; two doses of 0.1 mg/kg at 4 hours interval, 24-hour treatment time (FIG. 1D)
  oocyst counts: 80 oocysts per mosquito
[2]; [5]
  mosquitoes that had oocysts: 4 of 23
  oocysts in the mosquitoes: almost completely eliminated oocysts
[2]; two doses of 0.5 mg/kg at 4 hours interval, 24-hour treatment (FIG. 1D)
  oocyst counts: 2 oocysts per mosquito

## COc1cc(NC(C)CCCN)c2ncccc2c1 (stereo not shown) [primaquine]
[2]; [4]
  mosquitoes that had oocysts: 7 of 21
  oocyst counts: 6 oocysts per mosquito

## CNCCCC1c2ccccc2C=Cc2ccccc21 [protryptiline hydrochloride]
[2]; 10 mg/kg single dose i.p.
  oocyst formation: strong reduction in oocyst formation

## CCN(CC)CCCC(C)Nc1c2ccc(Cl)cc2nc2ccc(OC)cc12 (stereo not shown) [quinacrine]
P. falciparum lines; 72 h
  pIC50: > 5.70

## CC(=O)O[C@H]1C(=O)[C@@]2(C)[C@H]([C@H](OC(=O)c3ccccc3)[C@]3(O)C[C@H](OC(=O)[C@H](O)[C@@H](NC(=O)c4ccccc4)c4ccccc4)C(C)=C1C3(C)C)[C@]1(OC(C)=O)CO[C@@H]1C[C@@H]2O [taxol]
P. falciparum lines; [3]
  pIC50: > 5.70
